Consider 22 compounds from patent publication US20170334899A1, “AMINO-SUBSTITUTED ISOTHIAZOLES” (Bayer Pharma Aktiengesellschaft, priority 2014, published 2017).

The target in one test is T1, CDK2/CycE (Homo sapiens, UniProt P24941).
T1 construct: GST; purchased ProQinase GmbH (Freiburg, Germany); host or cells: insect cells (Sf9)
Put plainly: CDK2/CycE kinase assay (TR-FRET). The format is biochemical. Conditions: avg, read-out: CDK2 avg (IC50 [mol/l]). An outline of the steps: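 GST-tagged human CDK2 and CycE from Sf9 cells, preincubated 15 min with compound, then 25 min at 22° C. with 10 μM ATP and 0.75 μM biotinylated Rb-derived peptide (final). Phospho-substrate read by TR-FRET (anti-pRB pSer807/pSer811, Eu anti-mouse IgG, streptavidin-XL665), 665/620 nm ratio, normalised to no-inhibitor and no-enzyme controls.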
(In general: In TR-FRET formats the signal depends on donor and acceptor labels being close together.)

The next test has as its system HeLa. Put plainly: Proliferation assay (crystal violet), HeLa. Format: cell-based. The settings on record: Homo sapiens, HeLa, 96 h, HeLa cells; 4 days incubation; crystal violet staining; read-out: IC50 inhibition of proliferation, HeLa. The method, boiled down: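 Tumor cells seeded at 1000–5000 cells/well in medium with 10% FCS; after 24 h, compounds added at 0.001–10 μM (0.5% DMSO) for 4 days. Cells fixed with glutaraldehyde, stained with crystal violet, dye dissolved in acetic acid and read at 595 nm. IC50 from 4-parameter fit, normalized to zero-point plate and untreated cells.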

Turning to `CNS(=O)(=O)c1ccc(NC(=O)c2c(C)nsc2Nc2cnc3ccccc3n2)cc1` [Example 111, 3-Methyl-N-[4-(methylsulfannoyl)phenyl]-5-(quinoxalin-2-ylamino)-1,2-thiazole-4-carboxamide], the results for the IC50 at CDK2/CycE and in the test with HeLa were ≥ 20 µM and 4.4 µM, respectively.
Taken in the same sequence, the figures for `Cc1nsc(Nc2cnc(C(F)(F)F)cn2)c1C(=O)Nc1ccc(O[C@H]2CCN(CC(F)F)C[C@H]2F)nc1` [Example 144, N-(6-{[(3R,4S)-1-(2,2-difluoroethyl)-3-fluoropiperidin-4-yl]oxy}pyridin-3-yl)-3-methyl-5-{[5-(trifluoromethyl)pyrazin-2-yl]amino}-1,2-thiazole-4-carboxamide] were > 20 µM and 0.16 µM.
On to `Cc1nsc(Nc2cncc(C(F)(F)F)n2)c1C(=O)Nc1ccc(C(=O)NC2CCN(CC(F)(F)F)CC2)cc1` [Example 167, 3-methyl-N-(4-{[1-(2,2,2-trifluoroethyl)piperidin-4-yl]carbamoyl}phenyl)-5-{[6-(trifluoromethyl)pyrazin-2-yl]amino}-1,2-thiazole-4-carboxamide], for which the IC50 was > 20 µM on CDK2/CycE and 4.3 µM in the test on HeLa.
For `Cc1nsc(Nc2cnc(C(F)(F)F)cn2)c1C(=O)Nc1ccc(OC[C@@H]2CCN(CCC(F)(F)F)C2)nc1` [Example 129, 3-Methyl-5-{[5-(trifluoromethyl)pyrazin-2-yl]amino}-N-(6-{[(3R)-1-(3,3,3-trifluoropropyl)pyrrolidin-3-yl]methoxy}pyridin-3-yl)-1,2-thiazole-4-carboxamide], the values for the IC50 at CDK2/CycE and in the test with HeLa were > 20 µM and 0.25 µM, respectively.
With `Cc1nsc(Nc2cnc3ccccc3n2)c1C(=O)Nc1ccc(C(=O)N2CCN(CC(F)F)CC2)cc1` [Example 157, N-(4-{[4-(2,2-difluoroethyl)piperazin-1-yl]carbonyl}phenyl)-3-methyl-5-(quinoxalin-2-ylamino)-1,2-thiazole-4-carboxamide], the IC50 at CDK2/CycE is > 20 µM; with HeLa, > 10 µM.
Taken in the same sequence, the figures for `Cc1nsc(Nc2cnc3ccccc3n2)c1C(=O)Nc1cccc(C(=O)N2CCCC2)c1` [Example 113, 3-Methyl-N-[3-(pyrrolidin-1-ylcarbonyl)phenyl]-5-(quinoxalin-2-ylamino)-1,2-thiazole-4-carboxamide] were ≥ 20 µM and 10 µM.
As to `Cc1nsc(Nc2cnc3ccccc3n2)c1C(=O)Nc1ccc(N2CCOCC2)nc1` [Example 169, 3-methyl-N-[6-(morpholin-4-yl)pyridin-3-yl]-5-(quinoxalin-2-ylamino)-1,2-thiazole-4-carboxamide], the IC50 is > 20 µM at CDK2/CycE and > 10 µM in the test with HeLa.
`Cc1nsc(Nc2cnc3ccccc3n2)c1C(=O)Nc1cccc(C(=O)N[C@H](C(=O)O)[C@@H](C)O)c1` [Example 105, N-[3-({[3-methyl-5-(quinoxalin-2-ylamino)-1,2-thiazol-4-yl]carbonyl}amino)-benzoyl]threonine]: the figures for the IC50 on CDK2/CycE and with HeLa were ≥ 20 µM and 10 µM, respectively.
Taken in the same sequence, the figures for `Cc1nsc(Nc2cnc(C(F)(F)F)cn2)c1C(=O)Nc1ccc(OC[C@H]2CCN(CCC(F)(F)F)C2)nc1` [Example 134, 3-Methyl-5-{[5-(trifluoromethyl)pyrazin-2-yl]amino}-N-(6-{[(3S)-1-(3,3,3-trifluoropropyl)pyrrolidin-3-yl]methoxy}pyridin-3-yl)-1,2-thiazole-4-carboxamide] were > 20 µM and 0.45 µM.
The like results for `Cc1nsc(Nc2cnc(C(F)(F)F)cn2)c1C(=O)Nc1ccc(OC2CCN(C(C)C)CC2)nc1` [Example 160, N-{6-[(1-isopropylpiperidin-4-yl)oxy]pyridin-3-yl}-3-methyl-5-{[5-(trifluoromethyl)pyrazin-2-yl]amino}-1,2-thiazole-4-carboxamide] were, in that order, > 20 µM and 3.3 µM.
Taken in the same sequence, the figures for `COC(=O)CNC(=O)c1cccc(NC(=O)c2c(C)nsc2Nc2cnc3ccccc3n2)c1` [Example 100, Methyl N-[3-({[3-methyl-5-(quinoxalin-2-ylamino)-1,2-thiazol-4-yl]carbonyl}amino)-benzoyl]glycinate] were ≥ 20 µM and 10 µM.
On to `Cc1nsc(Nc2cnc(C(F)(F)F)cn2)c1C(=O)Nc1ccc(OC2CCN(CCF)CC2)c(F)c1` [Example 162, N-(3-fluoro-4-{[1-(2-fluoroethyl)piperidin-4-yl]oxy}phenyl)-3-methyl-5-{[5-(trifluoromethyl)pyrazin-2-yl]amino}-1,2-thiazole-4-carboxamide], for which the IC50 at CDK2/CycE is > 20 µM; with HeLa, 0.33 µM.
For `Cc1nsc(Nc2ccc(C#N)cn2)c1C(=O)Nc1ccc(Oc2cccc(C(F)(F)F)c2)nc1` [Example 118, 5-[(5-Cyanopyridin-2-yl)amino]-3-methyl-N-{6-[3-(trifluoromethyl)phenoxy]pyridin-3-yl}-1,2-thiazole-4-carboxamide], the IC50 at CDK2/CycE is ≥ 20 µM; in the test on HeLa, 0.6 µM.
Consider `Cc1nsc(Nc2cnc(C(F)(F)F)cn2)c1C(=O)Nc1ccc(C(=O)NC2CCN(CC(F)(F)F)CC2)cc1` [Example 165, 3-methyl-N-(4-{[1-(2,2,2-trifluoroethyl)piperidin-4-yl]carbamoyl}phenyl)-5-{[5-(trifluoromethyl)pyrazin-2-yl]amino}-1,2-thiazole-4-carboxamide], for which the IC50 at CDK2/CycE was > 20 µM; in the test with HeLa it was 3.2 µM.
Regarding `Cc1nsc(Nc2cnc(C(F)(F)F)cn2)c1C(=O)Nc1ccc(OC2CCN(CC(F)(F)F)CC2)c(F)c1` [Example 163, N-(3-fluoro-4-{[1-(2,2,2-trifluoroethyl)piperidin-4-yl]oxy}phenyl)-3-methyl-5-{[5-(trifluoromethyl)pyrazin-2-yl]amino}-1,2-thiazole-4-carboxamide], the IC50 on CDK2/CycE is > 20 µM; in the test with HeLa, 0.16 µM.
With `Cc1nsc(Nc2cnc3ccccc3n2)c1C(=O)Nc1cccc(-c2nc(C(C)(C)C)no2)c1` [Example 108, N-[3-(3-tert-Butyl-1,2,4-oxadiazol-5-yl)phenyl]-3-methyl-5-(quinoxalin-2-ylamino)-1,2-thiazole-4-carboxamide], the IC50 is ≥ 20 µM at CDK2/CycE and 0.91 µM in the test on HeLa.
Taken in the same sequence, the figures for `Cc1nsc(Nc2cnc(C(F)(F)F)cn2)c1C(=O)Nc1ccc(OCC2CCN(CC(F)(F)F)C2)nc1` (centres unmarked) [Example 123, 3-Methyl-N-(6-{[1-(2,2,2-trifluoroethyl)pyrrolidin-3-yl]methoxy}pyridin-3-yl)-5-{[5-(trifluoromethyl)pyrazin-2-yl]amino}-1,2-thiazole-4-carboxamide] were ≥ 20 µM and 0.13 µM.
Taken in the same sequence, the figures for `Cc1nsc(Nc2cnc(C(F)(F)F)cn2)c1C(=O)Nc1ccc(F)c(C(N)=O)c1` [Example 151, N-(3-carbamoyl-4-fluorophenyl)-3-methyl-5-{[5-(trifluoromethyl)pyrazin-2-yl]amino}-1,2-thiazole-4-carboxamide] were > 20 µM and 8.9 µM.
The like results for `Cc1nsc(Nc2cnc3ccccc3n2)c1C(=O)Nc1ccc(C(=O)NCCN2CCCC(F)(F)C2)cc1` [Example 156, N-(4-{[2-(3,3-difluoropiperidin-1-yl)ethyl]carbamoyl}phenyl)-3-methyl-5-(quinoxalin-2-ylamino)-1,2-thiazole-4-carboxamide] were, in that order, > 20 µM and > 10 µM.
Regarding `Cc1nsc(Nc2cnc(C(F)(F)F)cn2)c1C(=O)Nc1ccc(OC[C@@H]2CCN(CC(F)F)C2)nc1` [Example 127, N-(6-{[(3R)-1-(2,2-difluoroethyl)pyrrolidin-3-yl]methoxy}pyridin-3-yl)-3-methyl-5-{[5-(trifluoromethyl)pyrazin-2-yl]amino}-1,2-thiazole-4-carboxamide], the IC50 at CDK2/CycE was > 20 µM; with HeLa, 0.46 µM.
Taken in the same sequence, the figures for `Cc1nsc(Nc2cnc(C(F)(F)F)cn2)c1C(=O)Nc1ccc(OCC2CCN(CCC(F)(F)F)C2)nc1` (centres unmarked) [Example 124, 3-methyl-5-{[5-(trifluoromethyl)pyrazin-2-yl]amino}-N-(6-{[1-(3,3,3-trifluoropropyl)pyrrolidin-3-yl]methoxy}pyridin-3-yl)-1,2-thiazole-4-carboxamide] were ≥ 20 µM and 0.36 µM.
`CCCCN1CC[C@@H](Oc2ccc(NC(=O)c3c(C)nsc3Nc3cnc(C(F)(F)F)cn3)cn2)[C@@H](F)C1` [Example 141, N-(6-{[(3S,4R)-1-butyl-3-fluoropiperidin-4-yl]oxy}pyridin-3-yl)-3-methyl-5-{[5-(trifluoromethyl)pyrazin-2-yl]amino}-1,2-thiazole-4-carboxamide]: the IC50 at CDK2/CycE was > 20 µM; with HeLa, 0.34 µM.
